Consider six molecules from publication PMC2709466, “Heteroarotinoids with Anti-Cancer Activity Against Ovarian Cancer Cells” (The Open Medicinal Chemistry Journal, 2007).

Details of data set [1]: method as in PMID 9357524. The note with it: mice; cited from earlier work.
For data set [2] the following is noted: preclinical testing; cited from earlier work.
Another data set has as its system cancerous cell phenotype. Also noted: method as in PMID 11287445. The note with it: at 3 μM; cited from earlier work.
Details of data set [3]: method as in PMID 16534614. As to conditions: cited from earlier work.
On the set-up of data set [4]: method as in PMID 16534614. As to conditions: preliminary evidence; cited from earlier work.
The subject of data set [5] is A2780 ovarian cancer cells. Briefly: CellTiter 96 AQueous One Solution (MTS) cytotoxicity assay, 48 h, A2780. The note with it: for Growth inhibition of ovarian cancer cultures (in words): A2780, Fig. 4; for Differential effects on cancer cells versus normal cells (therapeutic window): A2780 versus normal endometrial cells, Fig. 4C and Table 4; for EC50: Homo sapiens, A2780 ovarian cancer cells, 48 hours of treatment, read-out: Potencies (EC50 values) of Growth Inhibition Activity, A2780 Ovarian Cancer. The data set is classed as cell-based. As for the experimental part:
(§1) The CellTiter 96 AQueous One Solution Cell Proliferation Assay (Promega) was used to measure living cells remaining after 48 hours of incubation with or without a range of concentrations for the heteroarotinoids. MTS [3-(4,5-dimethylthiazol-2-yl)-5-(3-carboxymethoxyphenyl)-2-(4-sulfophenyl) -2H-tetrazolium, inner salt], a novel tetrazolium compound, was added to each well and incubated for 4 hours, followed by addition of a solublization/stop solution. After overnight incubation, the optical density (OD) of each well was determined by measuring the absorbance at 540 nm using a Dynex MRX Revelation microtiter plate reader. Treatments were performed in triplicate, and the growth indices were derived by dividing the average OD540 of each treatment by the average OD540 of control cultures. The results represent the average and standard error of two to three independent experiments.
(§2) The A2780 ovarian cancer cells were cultured in RPMI media, and normal endometrial cells were cultured in MEM media. Both media contained fetal bovine serum (FBS), sodium pyruvate, and antibiotic/antimycotic. The normal endometrial cells were collected from a healthy premenopausal […] and used prior to passage as previously described.
The abilities of the new heteroarotinoids to inhibit cancer growth were compared by growing the ovarian cancer cell line (A2780) in the absence and presence of various concentrations of the different compounds. The amount of cells remaining after 48 hours of treatment was measured using a cytotoxicity assay. The optical density (OD) endpoint of the assay represents the number of cells remaining after 48 hours of treatment. The Growth Index was derived by dividing the OD of treated cultures by the OD of untreated cultures. The results are presented in graphic form where Growth Index on the y axis represents the number of cells remaining after 48 hours of treatment relative to untreated controls, and the x axis represents the concentration of drug added. The lower the Growth Index, the greater the growth inhibition.

For another data set, the system named is normal endometrial cells. Briefly: CellTiter 96 AQueous One Solution (MTS) cytotoxicity assay, 48 h, normal cells. The data set is classed as cell-based. The note with it: 48 hours of treatment, read-out: Potencies (EC50 values) of Growth Inhibition Activity, Normal Endometrium. As for the experimental part:
as §1, §2

The next data set concerns A2780 cells. Kind of data set: Annexin-V-FITC / propidium iodide apoptosis assay (flow cytometry). The format is cell-based. As to conditions: 10 µM, 24 hours. How it is done:
Cells were plated in 6-well tissue culture dishes at a cell density of 1 x 10^5 cells/well. After allowing cells to adhere to the dishes overnight, parallel cultures were treated with varying concentrations of heteroarotinoids or the same volume of DMSO solvent for 24 hours. The Vybrant™ Apoptosis Assay Kit #3 (Molecular Probes) was then utilized to measure apoptosis and necrosis. Tissue culture medium in each well was collected to harvest cells that had already lifted off the tissue culture plate. These were combined with adherent cells that were harvested by trypsinization. The cells were pelleted by centrifugation and resuspended in 100 μL of 1X annexin-binding buffer, and then they were incubated with 5 µl of annexin V conjugated to fluorescein (Annexin-V-FITC) and 1 µL of 100 µg/mL propidium iodide (PI) for 15 minutes at room temperature. The solution was then mixed gently with an additional 400 µl of 1X annexin-binding buffer, and the samples were evaluated with a FACSCalibur (Becton Dickinson) automated benchtop flow cytometer at an excitation wavelength of 488 nm with observation wavelengths of 530 nm and 575 nm. Flow cytometry data were quantified using Summit for MoFlo Acquisition and Sort Control Software (Cytomation, Inc). […]

As for `CC1=C(/C=C/C(C)=C/C=C/C(C)=C/C(=O)O)C(C)(C)CCC1` [Compound 1, trans-retinoic acid], the “maximum tolerated dose (MTD)” value in [1] is given as 10 mg/kg/day.
Consider `CC1(C)CC(C)(C)c2cc(NC(=S)Nc3ccc([N+](=O)[O-])cc3)ccc2S1` [Compound 10a, [4-nitrophenylamino][(2,2,4,4-tetramethylthiochroman-6-yl)amino]methane-1-thione], for which the “Toxicity, skin irritancy, teratogenicity” value in data set [2] is on record as “without evidence of toxicity, skin irritancy, or teratogenicity”. Moreover, the Effects on differentiation result in the data set on cancerous cell phenotype is “normalization of the cancerous cell phenotype and induction of orderly tissue architecture”. Also, the “Binding to proteins in mouse plasma” value in data set [3] is on record as “binds strongly”. Moreover, in [4], the “Concentrations achieved and maintained in animal models” value was “micromolar concentrations”. Besides, in [5], the “Growth inhibition of ovarian cancer cultures (in words)” value is recorded as “micromolar range”, the “Differential effects on cancer cells versus normal cells (therapeutic window)” value is “differential effects” and the concentration giving a half-maximal response (EC50) was found to be 1.72 µM. In addition, the EC50 in the data set on normal endometrial cells is 2.97 µM.
Take `Cc1ccc2cc(NC(=O)Nc3ccc([N+](=O)[O-])cc3)ccc2n1` [Compound 9b, 1-(2-Methylquinolin-6-yl)-3-(4-nitrophenyl)urea]: the melting point lay in the range of 241 to 242 °C. The 50% effective concentration (EC50) in [5] was found to be 7.86 µM. Further, in the data set on normal endometrial cells, the EC50 is over 1000 µM.
On to `CC1(C)CC(C)(C)c2cc(NC(=O)Nc3ccc([N+](=O)[O-])cc3)ccc2S1` [Compound 10c, 1-(2,2,4,4-Tetramethylthiochroman-6-yl)-3-(4-nitrophenyl)urea], for which the “Induction of apoptosis (Annexin-V-FITC staining)” value in the data set with A2780 cells was “induces positive staining for Annexin-V-FITC”. Moreover, the “Degree of apoptosis induced, 10c compared with 10a” value in the data set with A2780 cells (Fig. 5C) is listed as “slightly higher”. In data set [5], the “Growth inhibition of ovarian cancer cultures (in words)” value is “micromolar range”, the “Differential effects on cancer cells versus normal cells (therapeutic window)” value is “differential effects” and the EC50 was found to be 1.02 µM. Moreover, the EC50 in the data set on normal endometrial cells is 2.29 µM.
`Cc1ccc2cc(NC(=S)Nc3ccc([N+](=O)[O-])cc3)ccc2n1` [Compound 9a, 1-(2-Methylquinolin-6-yl)-3-(4-nitrophenyl) thiourea] returned a melting point of 113 to 115 °C. Further, the EC50 in data set [5] worked out at 5 µM. Moreover, the EC50 with normal endometrial cells was over 1000 µM.
Regarding `CCOC(=O)c1ccc(NC(=O)Nc2ccc3nc(C)ccc3c2)cc1` [Compound 9c, Ethyl 4-[3-(2-Methylquinolin-6-yl)ureido]benzoate], the EC50 was 4.88 µM in data set [5] and over 1000 µM in the data set with normal endometrial cells.
